Positions of bridges follow the written chain, without caps; N, C: chain ends. No end group written: not given here.
What was measured:
[1] = biological target: T1, hASIC1a (Homo sapiens, UniProt P78348); experiment: TEVC in Xenopus laevis oocytes expressing hASIC1a; format: cell-based; conditions: for loss of potency relative to wild-type Ma-3: conditioning pH 7.45, stimulating pH 6
T1 construct: expressed in transfected cells; host or cells: Xenopus laevis oocytes (cRNA injection)
T1 sequence (P78348 1-528): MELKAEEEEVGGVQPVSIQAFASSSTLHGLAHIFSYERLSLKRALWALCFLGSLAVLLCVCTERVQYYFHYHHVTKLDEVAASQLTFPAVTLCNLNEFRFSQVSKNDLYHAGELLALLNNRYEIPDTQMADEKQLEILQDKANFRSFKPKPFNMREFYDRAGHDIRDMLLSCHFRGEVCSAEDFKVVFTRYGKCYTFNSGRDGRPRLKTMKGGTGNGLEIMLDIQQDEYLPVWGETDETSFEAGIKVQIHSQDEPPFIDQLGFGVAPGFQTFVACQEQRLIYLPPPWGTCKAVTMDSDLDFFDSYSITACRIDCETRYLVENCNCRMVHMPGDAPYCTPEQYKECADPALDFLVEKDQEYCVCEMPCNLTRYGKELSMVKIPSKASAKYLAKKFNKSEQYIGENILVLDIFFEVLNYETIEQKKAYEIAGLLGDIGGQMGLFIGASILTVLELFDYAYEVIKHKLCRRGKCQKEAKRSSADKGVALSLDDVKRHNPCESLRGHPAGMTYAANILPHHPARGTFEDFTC
Method: Two-electrode voltage-clamp (TEVC) experiments using Xenopus laevis oocytes were conducted as previously described. Briefly, oocytes were surgically removed from anaesthetised female frogs, then treated with collagenase (~ 1 mg/ml, Sigma type I) for 2 h under agitation at room temperature. cRNAs were synthesised using a mMessage mMachine T7 or SP6 transcription kit (Thermo Fisher Scientific Australia Pty Ltd, Scoresby, VIC, Australia) and injected into healthy stage V–VI oocytes at 0.2–20 ng per cell. Different amounts of RNA were used for different wild-type and mutant constructs, as well as to titrate expression levels to record over multiple days and maintaining consistent expression levels. Injected oocytes were incubated at 17 °C for 1–7 days in 50% Leibovitz’s L-15 medium (Gibco, Thermo Fisher Scientific Australia Pty Ltd, Scoresby, VIC, Australia), supplemented with 25 µg/mL gentamicin, 25 µg/mL streptomycin, and 2.5% fetal horse serum. Membrane currents were recorded 2–7 days after cRNA-injection under voltage-clamp at -60 mV (Axon Axoclamp 900 A, Molecular Devices, CA, USA) using two standard glass microelectrodes of 0.5–1 MΩ resistance when filled with 3 M KCl solution. Data were sampled at 2 kHz and filtered at 0.1 kHz using Clampex 10 software (Molecular Devices, CA, USA). […]
(§1) Specific to this work, the standard protocol was for oocytes to be conditioned at pH 7.45 and channels stimulated every 60 s using a 5 s pH 5 or 6 application, unless stated otherwise. […] Activation curves were determined by conditioning oocytes at pH 8 (Fig. 2e − g; and Fig. 5a and b) or 7.45 (Fig. 6; and Supplementary Fig. 2d and c) for 55 s and applying low pH stimuli from 7.25 to 5.0 for 5 s. Steady-state desensitisation (SSD) was determined by applying conditioning solutions of pH values from 8 to 6 for 115 s prior to stimulation by a pH drop to 5 for 5 s. […] Control pH-dependence curves were determined in the absence of any Ma-3. […]
Data were analysed using pCLAMP-Clampfit software (Version 11, Molecular Devices, CA, USA) and GraphPad Prism 9.5 and 10.2.2 (GraphPad Software, San Diego, CA, USA). […]

[2] = tested on: rASIC1a N291A; experiment: TEVC oocytes, rASIC1a N291A mutant; format: cell-based, rat; conditions: concentration-response, conditioning pH 7.45, stimulating pH 6
Method: (§2) Two-electrode voltage-clamp (TEVC) experiments using Xenopus laevis oocytes were conducted as previously described. Briefly, oocytes were surgically removed from anaesthetised female frogs, then treated with collagenase (~ 1 mg/ml, Sigma type I) for 2 h under agitation at room temperature. cRNAs were synthesised using a mMessage mMachine T7 or SP6 transcription kit (Thermo Fisher Scientific Australia Pty Ltd, Scoresby, VIC, Australia) and injected into healthy stage V–VI oocytes at 0.2–20 ng per cell. […] Membrane currents were recorded 2–7 days after cRNA-injection under voltage-clamp at -60 mV (Axon Axoclamp 900 A, Molecular Devices, CA, USA) using two standard glass microelectrodes of 0.5–1 MΩ resistance when filled with 3 M KCl solution. […]
as §1

[3] = biological target: T2, rASIC1b N324K (Rattus norvegicus, UniProt P55926, N291K); experiment: TEVC oocytes, rASIC1b N324K mutant; format: cell-based; conditions: 300 nM Ma-3, conditioning pH 7.45; Hill fit, n = 5–6
T2 construct: expressed in transfected cells; host or cells: Xenopus laevis oocytes injected with cRNA
T2 sequence (P55926 1-559 isoform P55926-3 N324K): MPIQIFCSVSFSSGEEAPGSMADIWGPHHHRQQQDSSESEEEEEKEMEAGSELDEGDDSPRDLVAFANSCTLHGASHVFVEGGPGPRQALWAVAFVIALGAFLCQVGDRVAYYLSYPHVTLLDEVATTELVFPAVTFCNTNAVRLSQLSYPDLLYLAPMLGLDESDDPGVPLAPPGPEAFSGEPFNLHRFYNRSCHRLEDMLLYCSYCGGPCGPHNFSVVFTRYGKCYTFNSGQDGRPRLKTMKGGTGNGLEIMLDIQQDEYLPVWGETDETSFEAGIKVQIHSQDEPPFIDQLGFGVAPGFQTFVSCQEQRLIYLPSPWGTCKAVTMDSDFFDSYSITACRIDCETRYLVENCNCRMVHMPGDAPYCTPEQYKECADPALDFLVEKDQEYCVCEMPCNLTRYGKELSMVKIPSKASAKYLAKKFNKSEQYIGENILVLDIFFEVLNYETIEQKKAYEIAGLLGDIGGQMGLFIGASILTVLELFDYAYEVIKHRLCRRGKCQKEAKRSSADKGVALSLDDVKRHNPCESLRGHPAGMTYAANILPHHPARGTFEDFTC
Method: as §2, §1

Row | Substance | loss of potency relative to wild-type Ma-3 [1] | pH50 of activation in presence of Ma-3 ([1]; 100 nM Ma-3 in the pH 8 conditioning solution, Hill fit, n = 5–6) | effect of channel mutation on Ma-3 potency [2] | pH50 of activation in presence of Ma-3 [3]
1 | H-SLKCYQHGAVVTCHRDMKFCYHNIGMPFRNLKLILQGCSSSCSETENNKCCSTDRCNK (disulfide 4-20, 13-38, 42-50, 51-56 (inferred)) [K8A] | ~ 4 fold |  |  | 
2 | H-SLKCYQHGKVVTCHRDAKFCYHNIGMPFRNLKLILQGCSSSCSETENNKCCSTDRCNK (disulfide 4-20, 13-38, 42-50, 51-56 (inferred)) [M16A] | no change |  |  | 
3 | H-SLKCYQHGKVVTCHRDMKFCYHNIGMPFRNLKLILQGCSSSCSETENNKCCSTDRCNK (disulfide 4-20, 13-38, 42-50, 51-56 (inferred)) [Ma-3, mambalgin-3] |  | 5.86 | had no effect on potency | 6.21

Source: paper PMC11335189, “Revealing molecular determinants governing mambalgin-3 pharmacology at acid-sensing ion channel 1 variants” (Cellular and Molecular Life Sciences: CMLS, 2024)
